From patent publication US20090155387A1, “STABLE PHARMACEUTICAL COMPOSITION COMPRISING BETA-LACTAM ANTIBIOTIC AND ION-CHELATING AGENT” (priority 2006, published 2009)
“Also recorded” adds a separate entry of the source.

Experiments:
[1] = HIAC light obscuration test (USP 788), particle content of solution preparations; format: physicochemical; details: HIAC test results, composition in the form of a liquid solution
Procedure: Light obscuration testing was performed for solution preparations prepared with some of the compositions described in the examples according to the method described in the United States Pharmacopeia (USP 788) using HIAC-3000 light obscuration detector. Particle content is denoted by the number of particles per milliliter of solution. The value is an average of two measurements. Samples were tested at 1 hour and at 20 hours.

[2] = Amounts of β-lactam antibiotic, β-lactamase inhibitor and aminoglycoside antibiotic in solution over time (reverse-phase LC/HPLC); format: physicochemical
Procedure, shortened: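 β-Lactam antibiotic and β-lactamase inhibitor quantified by C18 reverse-phase LC with UV-VIS detection; aminoglycoside by reverse-phase HPLC with evaporative light-scattering detection. Peak areas taken relative to an external standard, with each component at each time point given as a percentage of its initial amount.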

Row | SMILES | effect on aggregate particle formation in solution preparations [1] | amount (percentage of initial amount) ([2]; in Example 11 solution (pH 6.0) from freeze-dried powder stored 7 days at 0° C., redissolved, 0 h) | amount (percentage of initial amount) ([2]; in Example 11 solution (pH 6.0) from freeze-dried powder stored 7 days at 0° C., redissolved, 1 h) | amount (percentage of initial amount) ([2]; in Example 11 solution (pH 6.0) from freeze-dried powder stored 7 days at 0° C., redissolved, 2 h) | amount (percentage of initial amount) ([2]; in Example 11 solution (pH 6.0) from freeze-dried powder stored 7 days at 0° C., redissolved, 4 h) | amount (percentage of initial amount) ([2]; in Example 11 solution (pH 6.0) from freeze-dried powder stored 7 days at 0° C., redissolved, 6 h) | amount (percentage of initial amount) ([2]; in Example 11 solution (pH 6.0) from freeze-dried powder stored 7 days at 0° C., redissolved, 8 h) | amount (percentage of initial amount) ([2]; in Example 17 solution, pH 6.5, room temperature, 0 h) | amount (percentage of initial amount) ([2]; in Example 17 solution, pH 6.5, room temperature, 1 h) | amount (percentage of initial amount) ([2]; in Example 17 solution, pH 6.5, room temperature, 2 h) | amount (percentage of initial amount) ([2]; in Example 17 solution, pH 6.5, room temperature, 4 h) | amount (percentage of initial amount) ([2]; in Example 17 solution, pH 6.5, room temperature, 6 h) | amount (percentage of initial amount) ([2]; in Example 17 solution, pH 6.5, room temperature, 8 h) | amount (percentage of initial amount) ([2]; in Example 18 solution (2.5% fructose), pH 6.5, room temperature, 0 h) | amount (percentage of initial amount) ([2]; in Example 18 solution (2.5% fructose), pH 6.5, room temperature, 1 h) | amount (percentage of initial amount) ([2]; in Example 18 solution (2.5% fructose), pH 6.5, room temperature, 2 h) | amount (percentage of initial amount) ([2]; in Example 18 solution (2.5% fructose), pH 6.5, room temperature, 4 h) | amount (percentage of initial amount) ([2]; in Example 18 solution (2.5% fructose), pH 6.5, room temperature, 6 h) | amount (percentage of initial amount) ([2]; in Example 18 solution (2.5% fructose), pH 6.5, room temperature, 8 h)
1 | O=C(O)CN(CCN(CC(=O)O)CC(=O)O)CC(=O)O [EDTA, ethylenediamine tetraacetic acid] | can significantly reduce aggregate particle formation; also recorded: effective in inhibiting formation of aggregate particles |  |  |  |  |  |  |  |  |  |  |  |  |  |  |  |  |  | 
2 | CC1(C)S[C@@H]2[C@H](NC(=O)[C@H](NC(=O)N3CCN(S(C)(=O)=O)C3=O)c3ccccc3)C(=O)N2[C@H]1C(=O)O [Mezlocillin sodium] |  | 97.11% | 90.83% | 98.18% | 93.69% | 91.23% | 94.39% | 116.6% | 94.83% | 91.86% | 91.96% | 91.52% | 98.56% | 96.48% | 95.90% | 71.70% | 91.78% | 93.08% | 97.69%
